Data reported in patent US5919796A, “Hydroximic acid derivatives, pharmaceutical compositions containing them, and processes for preparing the same” (BIOREX Kutato es Fejleszto Rt., priority 1994, dated 1999).
Counter-ions that a name gives are not always drawn.

What was measured:
sciatic and tibial nerve = assay: Motor and sensory impulse conduction rate of nerves in STZ-induced diabetic rats (diabetic angiopathy complications); assay type: in vivo, male Cr:Wistar rats; conditions: for MCR correction (%): motor conduction rate; for SCR correction (%): sensory conduction rate
Protocol: Furthermore, the effect of the compounds of the invention in the treatment of complications associated with the diabetic angiopathy was studied. The in vivo action was measured on rats, by the change of rate of the impulse conduction in an STZ-induced diabetic state as follows.
The electrophysiological measurements were carried out on anaesthetized male Cr:Wistar rats at the end of a one-month period of treatment with 20 mg/kg administered orally (p.o.). The sciatic or tibial nerve, respectively, was excited by needle electrodes stitched near the nerve on the lower extremity and the electromyographic (EMG) responses of the plantar muscle were registered. Five EMG-s each were averaged and the results were stored in a computer. The latency periods of the motor and sensory components were measured. The rates of impulse conduction were calculated from the ratio of the distance between two sites of excitation to the differences of latency.

[1] = tested on: thoracal aorta isolated from rabbit; assay: Vasorelaxant effect in vitro on isolated thoracal aorta; conditions: Oryctolagus cuniculus
Text: The vasorelaxant effect of the compounds was investigated in vitro on the thoracal aorta isolated from rabbit [Am. J. Physiol. 257, 1327-1333 (1989)].

[2] = tested on: Reperfusion-induced arrhythmia; assay: Reperfusion-induced arrhythmia (ventricular tachycardia and fibrillation, survival) in anaesthetized rats; assay type: in vivo, rat; conditions: 1 mg/kg i.v., 5 minutes before compressing the left-sided descending coronary artery; first 3 minutes of reperfusion
Protocol: The Reperfusion-induced arrhythmia [ventricular tachycardia (VI) and ventricular fibrillation (VF)] was studied on anaesthetized rats. Myocardial ischemia was elicited by compressing the left-sided descending coronary artery for 5 minutes and after the ceasing thereof, by a 10-minute reperfusion of the heart. ECG was continuously monitored, and the change of the mean duration of VT and VF under effect of the test compounds, as well as the survival, were measured in the first 3 minutes of reperfusion. The test compounds were administered in an intravenous (i.v.) dose of 1 mg/kg by 5 minutes before compressing the left-sided descending coronary artery.

[3] = 20 mg/kg p.o., one-month treatment

Row | SMILES | EC50 [1] [µM] | further results
1 | N=C(N)NN [Reference drug, aminoguanidine, reference compound] |  | MCR correction (%) (sciatic and tibial nerve; 50 mg/kg of aminoguanidine): 40%; SCR correction (%) (sciatic and tibial nerve; 50 mg/kg of aminoguanidine): 45%
2 | CCN(CC)CCCON=C(Cl)c1cccnc1 [Example 4, O-(3-diethylaminopropyl)-3-pyridinehydroximoyl chloride hydrochloride] | 82 | 
3 | CN1CCN(CCCON=C(Cl)c2cccnc2)CC1 [Example 9, N-[3-(4-methylpiperazin-1-yl)-1-propoxy]-3-pyridinecarboximidoyl chloride trihydrochloride] | 76 | 
4 | Cl.O=[N+]([O-])c1cccc(C(Cl)=NOCCCN2CCCCC2)c1 [Example 7, O-(3-piperidinopropyl)-3-nitro-benzhydroximoyl chloride hydrochloride] | 6 | MCR correction (%) (sciatic and tibial nerve; [3]): 48%; SCR correction (%) (sciatic and tibial nerve; [3]): 64%; survival of experimental animals [2]: 100%
5 | ClC(=NOCCN1CCCCC1)c1cccnc1 [Example 6, O-(2-piperidinoethyl)-3-pyridinehydroximoyl chloride hydrochloride] | 13 | 
6 | ClC(=NOCCCN1CCOCC1)c1cccnc1 [Example 5, O-(3-morpholinopropyl)-3-pyridinehydroximoyl chloride dihydrochloride] | 24 | 
7 | CC(C)COCC(CN(Cc1ccccc1)c1ccccc1)N1CCCC1 (stereo not shown) [Ref, Bepridil, reference compound] | 83 | 
8 | FC(F)(F)c1cccc(C(Cl)=NOCCCN2CCCCC2)c1 [Example 8, N-[3-(1-piperidinyl)propoxy]-3'-(trifluoromethyl)benzimidoylchloride hydrochloride] | 15 | 
9 | ClC(=NOCCCN1CCCCC1)c1cccnc1 [Example 2, N-(3-piperidinopropoxy)-3-pyridinecarboximodyl chloride dihydrochloride] | 27 | MCR correction (%) (sciatic and tibial nerve; [3]): 100%; SCR correction (%) (sciatic and tibial nerve; [3]): 100%; survival of experimental animals [2]: 100%
